The text below walks through data of ChEMBL document CHEMBL1201862, “PubChem BioAssay data set” (2004).

Among the test systems are A498; BT-549; HCT-116; LOX IMVI; M14; MDA-MB-231; NCI-H23; NCI-H460; OVCAR-3; OVCAR-4; OVCAR-5; RXF 393; SF-539; SNB-75; SW-620; UACC-257; UACC-62; HCC 2998; MDA-N.
Common to all, as to assay: NCI-60 cell line screen, 48 h

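48-hour exposure; five concentrations; linearly interpolated endpoints. GI50 is the concentration that inhibits growth by half.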 Calls of active or inactive are those of the source. Cut-off read from the data, not from the text of the source: active = GI50 up to about 1.1 µM and inactive = higher.

Take `CCN(CC)CCCC(C)Nc1ccnc2cc3ccccc3cc12` (stereo unspecified): the GI50 with A498 is 22.6 µM (inactive); with BT-549, 8.59 µM (inactive); in the assay with HCT-116 it was 5.75 µM (inactive); with LOX IMVI, 4.91 µM (inactive); with M14, 14.6 µM (inactive); with MDA-MB-231, 8.57 µM (inactive). Also, the GI50 with NCI-H23 was 14.3 µM (inactive); in the assay with NCI-H460, 3.57 µM (inactive); with OVCAR-3 it was 6.05 µM (inactive); in the assay on OVCAR-4, 3.24 µM (inactive); in the assay on OVCAR-5 it was 21.7 µM (inactive); in the assay with RXF 393, 9.53 µM (inactive). For the same compound, the GI50 was 22.8 µM (inactive) in the assay with SF-539; 6.95 µM (inactive) in the assay on SNB-75; 6.19 µM (inactive) in the assay with SW-620; 23.8 µM (inactive) in the assay on UACC-257; 17.2 µM (inactive) in the assay on UACC-62.

Take `N=C(N)NS(=O)(=O)c1ccc(NNc2c3ccccc3nc3c(C(=O)Nc4ccc(S(=O)(=O)Nc5ncccn5)cc4)cccc23)cc1`: the GI50 in the assay on A498 is > 100 µM (inactive); in the assay on HCC 2998, 50.8 µM (inactive); in the assay with HCT-116, 28.4 µM (inactive); in the assay with M14, 20.4 µM (inactive); in the assay with MDA-MB-231, 60.1 µM (inactive); in the assay on MDA-N, 49.7 µM (inactive). Moreover, the GI50 in the assay on NCI-H23 was 35.3 µM (inactive); in the assay with NCI-H460, 45.3 µM (inactive); in the assay on OVCAR-3 it was 38.4 µM (inactive); in the assay with OVCAR-4, 29.2 µM (inactive); in the assay with OVCAR-5 it was 74.8 µM (inactive); in the assay on RXF 393, 29 µM (inactive). In addition, the GI50 with SF-539 was 35.4 µM (inactive); in the assay on SNB-75, > 100 µM (inactive); in the assay with SW-620 it was 37.5 µM (inactive); with UACC-257 it was 66.7 µM (inactive); in the assay with UACC-62, 21.2 µM (inactive).

Regarding `CCOC(=O)c1csc(C(CSCc2ccc(OC)cc2)N2C(=O)c3ccccc3C2=O)n1` (stereo unspecified), the GI50 in the assay with A498 is > 100 µM (inactive); with BT-549, > 100 µM (inactive); in the assay on HCC 2998, > 100 µM (inactive); in the assay on HCT-116, 49.1 µM (inactive); with LOX IMVI, 37.6 µM (inactive); in the assay with M14, > 100 µM (inactive). In addition, the GI50 with MDA-MB-231, in the assay on NCI-H23, in the assay with NCI-H460, in the assay on OVCAR-3, in the assay with OVCAR-4 and in the assay on OVCAR-5 was > 100 µM (inactive) throughout. Further, the GI50 in the assay on RXF 393 is > 100 µM (inactive); with SF-539 it was > 100 µM (inactive); in the assay with SW-620, 50.2 µM (inactive); in the assay on UACC-257 it was > 100 µM (inactive); in the assay on UACC-62 it was 63.5 µM (inactive).

As for `N#C/C(=C/n1c(=S)[nH]c2ccccc21)C(N)=O`, the GI50 with A498, with HCC 2998, in the assay on HCT-116, in the assay with LOX IMVI, in the assay on M14 and in the assay with MDA-MB-231 was > 100 µM (inactive) in each case. Besides, the GI50 with MDA-N, in the assay on NCI-H23, with NCI-H460, in the assay with OVCAR-3, in the assay on OVCAR-4 and with OVCAR-5 was > 100 µM (inactive) throughout. Moreover, the GI50 with RXF 393, with SF-539, in the assay on SNB-75, in the assay on SW-620, with UACC-257 and with UACC-62 was > 100 µM (inactive) throughout.

Turning to `CN1C2=C(CC3=C1CC(C)(C)CC3=O)C(=O)CC(C)(C)C2`, the GI50 in the assay with A498, in the assay on BT-549, with HCC 2998, with LOX IMVI, with M14 and in the assay on NCI-H23 was > 100 µM (inactive) in each case. Further, the GI50 with NCI-H460, in the assay with OVCAR-3, in the assay on OVCAR-4, in the assay on OVCAR-5, in the assay on SF-539 and in the assay on SNB-75 was > 100 µM (inactive) each time. For the same compound, the GI50 in the assay with SW-620 and in the assay on UACC-62 was > 100 µM (inactive) each time.

Take `CNc1cccc2c1C(C)C[C@]1(C)C(=O)Nc3ccccc3[C@H]21` (stereo partly specified): the GI50 was 24 µM (inactive) with A498; 51.3 µM (inactive) in the assay on HCC 2998; 18.7 µM (inactive) in the assay on HCT-116; 15.8 µM (inactive) with LOX IMVI; 20.2 µM (inactive) with M14; 20.6 µM (inactive) in the assay on MDA-MB-231. The GI50 in the assay on MDA-N is 26.6 µM (inactive); in the assay with NCI-H23, 60.1 µM (inactive); in the assay on NCI-H460, 21.2 µM (inactive); with OVCAR-3, 17.5 µM (inactive); in the assay on OVCAR-4, 18.1 µM (inactive); in the assay with OVCAR-5, 31.1 µM (inactive). The GI50 is 23.2 µM (inactive) in the assay on RXF 393; 42 µM (inactive) in the assay on SF-539; 12.1 µM (inactive) in the assay with SNB-75; 33.9 µM (inactive) in the assay on SW-620; 13.4 µM (inactive) in the assay on UACC-257; 37.7 µM (inactive) in the assay with UACC-62.

Take `COC(=O)/C=C(/OC)[C@H](C)[C@H](/C=C/c1csc(-c2csc(C(C)C)n2)n1)OC`: the GI50 was 5.97 µM (inactive) with A498; 4.8 µM (inactive) in the assay on BT-549; 0.284 µM (active) with HCT-116; 0.0838 µM (active) with LOX IMVI; 1.44 µM (inactive) in the assay on M14; 4.69 µM (inactive) with MDA-MB-231. Further, the GI50 was 0.569 µM (active) in the assay with NCI-H23; 0.0521 µM (active) in the assay on NCI-H460; 0.35 µM (active) in the assay with OVCAR-3; 0.416 µM (active) in the assay on OVCAR-4; > 100 µM (inactive) with OVCAR-5; 1.35 µM (inactive) in the assay with RXF 393. In addition, the GI50 is 8.79 µM (inactive) in the assay with SF-539; > 100 µM (inactive) in the assay on SNB-75; 0.741 µM (active) in the assay on SW-620; 0.455 µM (active) in the assay on UACC-257; 0.33 µM (active) in the assay with UACC-62.

Regarding `COc1ccccc1N(CN1C(=O)CCC1C(=O)O)C(C)=O` (stereo unspecified), the GI50 in the assay on A498, in the assay on HCC 2998, in the assay with HCT-116, with LOX IMVI, with M14 and with MDA-MB-231 was > 100 µM (inactive) in each case. For the same compound, the GI50 with MDA-N, in the assay with NCI-H23, in the assay with NCI-H460, with OVCAR-3, in the assay with OVCAR-4 and in the assay with OVCAR-5 was > 100 µM (inactive) each time. Moreover, the GI50 in the assay on RXF 393 is 74.5 µM (inactive); with SF-539, > 100 µM (inactive); in the assay on SNB-75 it was > 100 µM (inactive); in the assay on SW-620, > 100 µM (inactive); in the assay on UACC-257, > 100 µM (inactive); with UACC-62, > 100 µM (inactive).

Consider `COc1cccc([C@@H]2C/C(=N\NC(=O)C(=O)N[C@@H](C)c3ccccc3)c3ccccc3N2)c1`, for which the GI50 was > 100 µM (inactive) in the assay with A498; > 100 µM (inactive) in the assay on HCC 2998; > 100 µM (inactive) in the assay with HCT-116; > 100 µM (inactive) with LOX IMVI; > 100 µM (inactive) with M14; 35.6 µM (inactive) in the assay with MDA-MB-231. For the same compound, the GI50 with MDA-N is 4.66 µM (inactive); in the assay with OVCAR-3 it was > 100 µM (inactive); with OVCAR-4 it was 34.8 µM (inactive); in the assay on OVCAR-5 it was > 100 µM (inactive); in the assay on RXF 393 it was 35.3 µM (inactive); in the assay on SF-539, 13.1 µM (inactive). Besides, the GI50 in the assay with SNB-75 was 21.3 µM (inactive); in the assay with SW-620, 89.5 µM (inactive); in the assay with UACC-257, 82 µM (inactive); in the assay on UACC-62 it was 9.31 µM (inactive).

On to `COc1c2c3c4c(c(OC)c(=O)c5c(O)cc(OC)c(c6c(OC)cc(O)c(c1=O)c63)c54)C(C(C)O)C2C(C)O` (stereo unspecified), for which the GI50 in the assay on A498 is 0.918 µM (active); in the assay on HCC 2998, 0.431 µM (active); with HCT-116 it was 0.847 µM (active); in the assay with LOX IMVI, 0.883 µM (active); with M14 it was 1.07 µM (active); with MDA-MB-231 it was 1.84 µM (inactive). In addition, the GI50 in the assay with MDA-N was 0.767 µM (active); in the assay on NCI-H23, 0.798 µM (active); in the assay on NCI-H460, 0.345 µM (active); in the assay with OVCAR-3 it was 0.871 µM (active); in the assay with OVCAR-4, 1.32 µM (inactive); in the assay on OVCAR-5, 1.28 µM (inactive). The GI50 is 0.471 µM (active) with RXF 393; 0.796 µM (active) in the assay with SF-539; 0.518 µM (active) with SNB-75; 0.522 µM (active) in the assay on SW-620; 0.792 µM (active) with UACC-257; 0.953 µM (active) in the assay on UACC-62.

For `C=C1C(=O)O[C@H]2C(=O)[C@H](C)CCC/C(C)=C/CC[C@@]3(C)O[C@@H]3C[C@@H]12`, the GI50 is 18.4 µM (inactive) with A498; 1.05 µM (active) in the assay with HCT-116; 1.49 µM (inactive) with LOX IMVI; 1.67 µM (inactive) in the assay on M14; 10.7 µM (inactive) in the assay on MDA-MB-231; 2.74 µM (inactive) in the assay with MDA-N. The GI50 in the assay with NCI-H23 was 14 µM (inactive); in the assay on NCI-H460, 15.4 µM (inactive); in the assay with OVCAR-3 it was 1.74 µM (inactive); in the assay with OVCAR-5, 5.6 µM (inactive); in the assay on SF-539, 2.39 µM (inactive); with SW-620, 1.56 µM (inactive). For the same compound, the GI50 was 2.99 µM (inactive) in the assay on UACC-257 and 5.06 µM (inactive) with UACC-62.

Consider `COc1cc([C@@H]2c3cc4c(cc3C[C@H]3COC(=O)[C@@H]32)OCO4)cc2c1OCO2` [AUSTROBAILIGNAN 1], for which the GI50 in the assay with A498, in the assay with HCC 2998, with HCT-116, in the assay on LOX IMVI, in the assay on M14 and with MDA-MB-231 was < 0.01 µM (active) each time. In addition, the GI50 in the assay on MDA-N is < 0.01 µM (active); in the assay with NCI-H23, < 0.01 µM (active); with NCI-H460, < 0.01 µM (active); with OVCAR-3, < 0.01 µM (active); in the assay with OVCAR-4 it was 11.4 µM (inactive); with OVCAR-5 it was < 0.01 µM (active). Besides, the GI50 in the assay with RXF 393 is < 0.01 µM (active); in the assay with SF-539 it was < 0.01 µM (active); with SNB-75, 0.0278 µM (active); in the assay with SW-620 it was < 0.01 µM (active); with UACC-62, < 0.01 µM (active).
